Series [1] relates to middle cerebral artery occlusion and reperfusion model. Put plainly: Cerebral infarction model: middle cerebral artery occlusion and reperfusion (infarct area, neurological symptoms, motor function). It is filed as in vivo, rats (Crj: Wistar strain). The conditions noted are these: rats, average of 10 animals; for Improvement of neurological symptoms* (total score) / Improvement of motor function (time stayed on rotor rod: seconds): single i.v. dose 3 mg/kg; for Improvement of neurological symptoms* (total score): 24 hours after occlusion, total score per Table 4, smaller = greater effect; for Improvement of motor function (time stayed on rotor rod: seconds): rotor rod 14 rotations per minute, maximum 1 minute; for Cerebral infarction reduction rate (%): single intravenous dose 3 mg/kg immediately before reperfusion, vs physiological saline group, bigger = greater effect. Further details: Improvement of neurological symptoms* (total score): scale not given here. As to the method: In this example, a cerebral infarction model was prepared using rats in which reperfusion injury was induced by ischemia and then reperfusion of the middle cerebral artery using the obturator method. The efficacy of compounds of the present invention following single-dose intravenous administration at dose of 3 mg/kg was evaluated in terms of infarct area, neurological symptoms and motor function.
In addition, Edaravone (trade name, Mitsubishi Pharma Corporation) was used as a reference compound. The compounds of the present invention were stored in a refrigerator under protection from light, while Edaravone (trade name) was stored at room temperature under protection from light.
Compounds of present invention: 2 mL of physiological saline was added directly to tube containing 3 mg aliquots of a compound of the present invention to dissolve and prepare solutions having a concentration of 3 mg/2 mL. These samples were prepared at the time of use.
Edaravone: Since Edaravone is an injectable solution having a concentration of 30 mg/20 mL, the required amounts were divided up and used.
Rats: Crj: Wistar strain, males, age 7 weeks (Charles River Laboratories Japan, Inc.)
The test compounds were administered in a single dose into the tail vein using a 1 mL syringe and 27 G injection needle immediately before the reperfusion.
The rats were anesthetized by intraperitoneal administration of sodium pentobarbital at dose of 40 mg/kg (Nembutal (trade name), Dainippon Pharmaceutical Co., Ltd.), and a middle cerebral artery occlusion and reperfusion model was prepared in accordance with the method of Koizumi et al. (Non-Patent Document 2). Namely, the animals were warmed to 37° C. and held in the dorsal position while breathing spontaneously. A midline cervical incision was made, and then the right external carotid artery and right internal carotid artery were separated without damaging the vagus nerve. The right common carotid artery and right external carotid artery were ligated, and a suture was attached to the origin of the internal carotid artery in preparation for ligation and maintenance of occlusion following insertion of an obturator into the internal carotid artery. Moreover, a small incision was made in the right common carotid artery, an obturator provided with an approximately 17 mm silicon-coated suture was inserted into the internal carotid artery, and the internal carotid artery was ligated. Two hours after ligation, the obturator was removed under unanesthesia to reperfuse. Furthermore, flexion of the contralateral forelimb was confirmed 30 minutes after occlusion of the middle cerebral artery.
The following neurological symptoms were evaluated 24 hours after occlusion of the middle cerebral artery according to the evaluation method of Petullo et al. (Non-Patent Document 3). Neurological symptoms consisted of flexion of the forelimbs, torso twisting, resistance when pushing on the back of the right or left shoulder (Lateral push), circling, return of the hindlimb to the floor when lifted from the floor (Hindlimb placement), behavior when the head is faced downward on an angle (Inverted angle board) and a locomotor activity test.
Flexion of the forelimbs: flexion of the forelimbs was observed when the animals were lifted up by the tail.
Torso twisting: Torso twisting was observed when the animals were lifted up by the tail.
Lateral push: Resistance was observed when pushing on the back of the right or left shoulder.
Hindlimb placement: The animals were observed as to whether or not the hindlimb immediately returns to the floor after being lifted from the floor when placed on a horizontal floor.
locomotor activity: locomotor activity was observed when the animals were placed in a polycarbonate cage.
The aforementioned tests were scored based on the criteria described in the following documents, followed by calculation of total scores (see Table 4 “Neurological Symptom Evaluation Criteria and Scores”). […]

The test system of series [2] is model of myocardial ischemia reperfusion injury. Put plainly: Model of myocardial ischemia-reperfusion injury in dogs. Format: in vivo. The conditions noted are these: 3 mg/kg into the femoral vein 10 minutes before 20 minutes coronary occlusion, then reperfusion. As to the method:
In order to confirm the efficacy of compounds of the present invention on myocardial infarction and arrhythmia caused by myocardial infarction, a pharmacological study was conducted using a model of myocardial ischemia reperfusion injury in dogs for the compounds used in Example 1.
Dogs having body weights of approximately 10 kg were anesthetized with pentobarbital (trade name) (30 mg/ml/kg) followed by shaving the surgical site after starting artificial respiration. The femoral vein and femoral artery were separated followed by cannulation. The femoral vein was used as the administration route for the test substances, while the femoral artery was used to measure blood pressure.
Next, after opening the left chest, making an incision in the pericardium and exposing the left ventricle, the left coronary artery was separated. A silk suture was passed through the coronary artery to occlude, followed by the attachment of an electromagnetic flow meter probe for measuring blood flow.
In addition, a pair of ultrasound crystal probes was fixed in position to measure changes in ventricular wall length as a indicator of myocardial contractile force, and indwelling needle was installed for measuring left intraventricular pressure. Compounds of the present invention were administered into the femoral vein at 3 mg/kg (15% physiological saline solution) followed 10 minutes later by occluding the coronary artery for 20 minutes, and subsequently reperfusing the coronary artery. Myocardial contraction following ischemia-reperfusion was compared for each group based on a value of 100 for myocardial contraction prior to ischemic reperfusion. In addition, comparisons were also made with a solvent control group administered only physiological saline.

The test system of series [3] is ouabain-induced arrhythmia model. Put plainly: Ouabain-induced arrhythmia model in guinea pigs. It is filed as in vivo, guinea pigs (Hartley strain). The conditions noted are these: dose 3 mg/kg i.v. immediately before ouabain infusion 3 μg/0.1 ml/min. The text has this: After guinea pigs (Hartley strain, age 6 weeks) were anesthetized with urethane, induction electrodes were attached to the hind limbs and fore limbs, and standard 2-lead electrocardiograms were monitored with an animal electrocardiogram analysis system (ECG-01, Japan Energy). After confirming that the waveforms of the electrocardiogram and heart rate were within the normal range, an incision was made in the epidermis of the neck followed by inserting a breathing tube into the trachea and cannulating a polyethylene tube into the left external jugular vein and left common carotid artery.
Immediately after administering a compound of the present invention dissolved in a physiological saline solution into the right external jugular vein, ouabain was continuously infused at 3 μg/0.1 ml/min through the cannulated polyethylene tube into the left external jugular vein using a syringe pump (Atom Syringe Pump 1235 (trade name), Atom Medical Corporation).
In addition, the polyethylene tube cannulated in the left common carotid artery was connected to a pressure transducer (P23XL, Gould Electronics), and fed to a pressure processor signal conditioner (TA-11, Gould Electronics) to record blood pressure and heart rate on a thermal plate recorder.
The results were assessed by comparing the dose (μg/kg) of ouabain administered until the appearance of arrhythmia and occurrence of cardiac arrest (arrhythmia is not induced even if a large dose of ouabain is administered if antiarrhythmic effects are high). Furthermore, a solvent dose group (administered only physiological saline in an amount equal to that of the test drug groups), and a positive control group administered a typical antiarrhythmic disopyramide phosphate (physiological saline solution), were also provided.

For the next series, the system named is guinea pigs. The conditions noted are these: guinea pig, in vivo.
Series [4] relates to model of myocardial ischemia-reperfusion injury. Put plainly: Model of myocardial ischemia-reperfusion injury in rats. It is filed as in vivo. The note with it: 3 mg/kg i.v. 5 minutes before 5 minutes coronary ligation, 8 rats per group; for Incidence of Ventricular Fibrillation (%) / Incidence of Ventricular Tachycardia (%): monitored 5 minutes after reperfusion; for Mortality Rate (%): then reperfusion.

Read-outs that look alike come from different tables or passages of the source.

Take `C[N+](C)(C)CCOc1ccc(C(=O)[O-])c(O)c1O` [Compound 32]: in series [1], the “Improvement of neurological symptoms* (total score)” value was 5.65, the “Improvement of motor function (time stayed on rotor rod: seconds)” value (“Improvement of motor function” for short) stood at 53.5 s and the “Cerebral infarction reduction rate (%)” value came to 55.4%. Besides, in series [2], the “Myocardial Contraction (%) (Based on a value of 100% for prior to ischemia-reperfusion)” value (from here on “Myocardial Contraction (%)”) worked out at 79%. Moreover, in series [3], the “Ouabain (μg/kg) administered until Cardiac arrest” value was 243 µg/kg and the “Ouabain (μg/kg) administered until appearance of Arrhythmia” value (shortened to “Ouabain … of Arrhythmia”) was found to be 176 µg/kg. For the same compound, in the series with guinea pigs (3 mg/kg), the “Occurrence of Arrhythmia” value is reported as “No” and the “Occurrence of cardiac arrest” value is recorded as “No”. Moreover, in the series on guinea pigs (10 mg/kg), the “Occurrence of Arrhythmia” value is reported as “No” and the “Occurrence of cardiac arrest” value is recorded as “No”. In series [4], the “Incidence of Ventricular Fibrillation (%)” value worked out at 12.5%, the “Incidence of Ventricular Tachycardia (%)” value amounted to 50.0% and the “Mortality Rate (%)” value is on record as 12.5%.

Take `C[N+](C)(C)CCCOc1cc(S(=O)(=O)[O-])ccc1O` [Compound 77]: in series [1], the “Improvement of neurological symptoms* (total score)” value is listed as 6.40, the “Improvement of motor function” value was 49.3 s and the “Cerebral infarction reduction rate (%)” value is listed as 47.3%. In series [2], the “Myocardial Contraction (%)” value is on record as 75%. In addition, in series [3], the “Ouabain (μg/kg) administered until Cardiac arrest” value came to 227 µg/kg and the “Ouabain … of Arrhythmia” value came out at 167 µg/kg. In addition, in the series on guinea pigs (3 mg/kg), the “Occurrence of Arrhythmia” value is “No” and the “Occurrence of cardiac arrest” value is “No”. Moreover, in the series on guinea pigs (10 mg/kg), the “Occurrence of Arrhythmia” value is “No” and the “Occurrence of cardiac arrest” value was “No”. For the same compound, in series [4], the “Incidence of Ventricular Fibrillation (%)” value is 12.5%, the “Incidence of Ventricular Tachycardia (%)” value is 75.0% and the “Mortality Rate (%)” value is recorded as 12.5%.

As for `C[N+](C)(C)CCOc1cc(C(=O)[O-])cc(O)c1O` [Compound 31], in series [1], the “Improvement of neurological symptoms* (total score)” value is recorded as 5.25, the “Improvement of motor function” value was determined as 60.0 s and the “Cerebral infarction reduction rate (%)” value is listed as 65.3%. The “Myocardial Contraction (%)” value in series [2] turned out to be 89%. In series [3], the “Ouabain (μg/kg) administered until Cardiac arrest” value was found to be 259 µg/kg and the “Ouabain … of Arrhythmia” value worked out at 179 µg/kg. In the series on guinea pigs (3 mg/kg), the “Occurrence of Arrhythmia” value was “No” and the “Occurrence of cardiac arrest” value is “No”. Moreover, in the series on guinea pigs (10 mg/kg), the “Occurrence of Arrhythmia” value is on record as “No” and the “Occurrence of cardiac arrest” value is “No”. Also, in series [4], the “Incidence of Ventricular Fibrillation (%)” value is reported as 0%, the “Incidence of Ventricular Tachycardia (%)” value worked out at 37.5% and the “Mortality Rate (%)” value is given as 0%.

As to `COc1ccc(C(=O)[O-])cc1OCC[N+](C)(C)C` [Compound 39], in series [1], the “Improvement of neurological symptoms* (total score)” value is 6.80, the “Improvement of motor function” value worked out at 42.4 s and the “Cerebral infarction reduction rate (%)” value was determined as 37.8%. Besides, the “Myocardial Contraction (%)” value in series [2] came out at 74%. In addition, in series [3], the “Ouabain (μg/kg) administered until Cardiac arrest” value worked out at 229 µg/kg and the “Ouabain … of Arrhythmia” value was found to be 165 µg/kg. Also, in the series on guinea pigs (3 mg/kg), the “Occurrence of Arrhythmia” value was “No” and the “Occurrence of cardiac arrest” value was “No”. In the series with guinea pigs (10 mg/kg), the “Occurrence of Arrhythmia” value is recorded as “No” and the “Occurrence of cardiac arrest” value is listed as “No”. For the same compound, in series [4], the “Incidence of Ventricular Fibrillation (%)” value came out at 12.5%, the “Incidence of Ventricular Tachycardia (%)” value is listed as 62.5% and the “Mortality Rate (%)” value is recorded as 12.5%.

For the compound `C[N+](C)(C)CCOc1cc(C(=O)[O-])c(O)cc1O` [Compound 30], in series [1], the “Improvement of neurological symptoms* (total score)” value is 6.50, the “Improvement of motor function” value is 51.4 s and the “Cerebral infarction reduction rate (%)” value is given as 42.9%. In addition, in series [2], the “Myocardial Contraction (%)” value amounted to 77%. Besides, in series [3], the “Ouabain (μg/kg) administered until Cardiac arrest” value is 247 µg/kg and the “Ouabain … of Arrhythmia” value was 173 µg/kg. Also, in the series on guinea pigs (3 mg/kg), the “Occurrence of Arrhythmia” value is “No” and the “Occurrence of cardiac arrest” value is given as “No”. Besides, in the series on guinea pigs (10 mg/kg), the “Occurrence of Arrhythmia” value was “No” and the “Occurrence of cardiac arrest” value is “No”. Moreover, in series [4], the “Incidence of Ventricular Fibrillation (%)” value came to 12.5%, the “Incidence of Ventricular Tachycardia (%)” value is on record as 62.5% and the “Mortality Rate (%)” value is recorded as 12.5%.

As for `CCN(CC)CC(=O)Nc1c(C)cccc1C` [Lidocaine, lidocaine, reference compound], in series [4], the “Incidence of Ventricular Fibrillation (%)” value is 12.5%, the “Incidence of Ventricular Tachycardia (%)” value came to 62.5% and the “Mortality Rate (%)” value came out at 12.5%.

In the case of `CC1=NN(c2ccccc2)C(=O)C1` [Edaravone, reference compound], in series [1], the “Improvement of neurological symptoms* (total score)” value was 6.10, the “Improvement of motor function” value came to 42.6 s and the “Cerebral infarction reduction rate (%)” value came out at 37.3%.

`C[N+](C)(C)CC(O)Oc1ccc(O)c(C(=O)[O-])c1` (stereo not drawn) [Compound 56]: in series [1], the “Improvement of neurological symptoms* (total score)” value amounted to 6.55, the “Improvement of motor function” value was 45.4 s and the “Cerebral infarction reduction rate (%)” value was found to be 40.7%. The “Myocardial Contraction (%)” value in series [2] came out at 71%. Further, in series [3], the “Ouabain (μg/kg) administered until Cardiac arrest” value was 244 µg/kg and the “Ouabain … of Arrhythmia” value came to 172 µg/kg. In addition, in the series with guinea pigs (3 mg/kg), the “Occurrence of Arrhythmia” value is given as “No” and the “Occurrence of cardiac arrest” value is reported as “No”. Moreover, in the series on guinea pigs (10 mg/kg), the “Occurrence of Arrhythmia” value was “No” and the “Occurrence of cardiac arrest” value is reported as “No”. For the same compound, in series [4], the “Incidence of Ventricular Fibrillation (%)” value was found to be 12.5%, the “Incidence of Ventricular Tachycardia (%)” value was 62.5% and the “Mortality Rate (%)” value was 25.0%.

Values taken from patent US7687546B2, “Quaternary ammonium compound, process for producing the same, therapeutic agent for cerebrovascular disorder, and therapeutic agent for heart disease” (Activus Pharma Co., Ltd., priority 2004, dated 2010).
